The source of these data is patent US7071231B2, “Naphthalene ureas as glucose uptake enhancers” (Telik, Inc., priority 1999, dated 2006).

Assay [1] has as its target insulin-like growth factor type 1 (IGF-1) receptor (Homo sapiens, UniProt P08069). Put plainly: Selectivity: IGF-1 receptor phosphorylation. The assay is classed as cell-based. Conditions: in the absence or presence of IGF-1.
A further assay has as its system db/db mouse. The assay is described as follows: Blood glucose level determination in db/db mouse. The assay is classed as in vivo. The following applies: compound intraperitoneally, with or without 0.01U insulin s.c.; 0-4 hr (FIGS. 8 and 9). On the procedure: Blood Glucose Level Determination in db/db Mouse.
An accepted model for Type 2 diabetes which has been used to establish the potential anti-diabetic activity of compounds is the db/db mouse. Seven to 9 week old male db/db mice (Jackson Laboratories, Bar Harbor, Me.), were used to the study of the effects of compounds on blood glucose levels. Animals were kept in a 12 h/12 h light/dark cycle, and experiments were initiated immediately after the dark period (7:00 a.m.). Food was removed at this time and returned after the final blood glucose measurement was taken.
Insulin (0.5U/ml, Humulin R, Catalog HI-201, Lilly, Indianapolis, Ind.) was prepared by diluting 100U/mL stock insulin 1:200 with PBS (phosphate buffered saline, Gibco, BRL). Compounds were prepared in a vehicle of either PBS or 20% DMSO in PBS.
Five to 10 animals (average weight 40–50 g) were used in each treatment condition. The animals were injected subcutaneously with either 0.01U insulin in PBS or PBS alone, followed by 0.1 mL of compound or its vehicle delivered intraperitoneally. Blood samples were taken 0 min, 15 min, 30 min, 1 hr, 2 hr and 4 hr after the administration of the drug or vehicle by tail bleeding. Glucose measurements were made with a Glucometer and Glucose strips (Bayer). […]

The test system of another assay is ob/ob mouse. Put plainly: Blood glucose, insulin and triglycerides in the ob/ob mouse model of Type 2 diabetes. The assay is classed as in vivo. Conditions: ob/ob mice, single dose 30 mg/kg, p.o. On the procedure:
Lowering of Blood Glucose, Insulin and Triglycerides in the ob/ob Mouse Model of Type 2 Diabetes Another standard model of Type 2 diabetes is the ob/ob mouse. Male ob/ob mice (C57 BL/6J-ob) were housed 3–5 to a cage with free access to standard rodent chow pellets. After one week, they were given a single dose of Compound 15 (30 mg/kg, p.o.). Compound 15 produced a 13% decrease in blood glucose levels, a 42% decrease in plasma insulin levels, and a 15% decrease in plasma triglyceride levels. The concomitant reduction of plasma glucose and insulin levels are consistent with a reduction in insulin resistance.

For the next assay, the system named is STZ/HFD rat. Put plainly: Blood glucose determination in the STZ/HFD rat model of Type 2 diabetes. The assay is classed as in vivo. The following applies: STZ/HFD rat. The source says:
Blood Glucose Determination in the STZ/HFD Rat Model of Type 2 Diabetes
Representative compounds were also profiled in genetically normal rats given a high-fat diet followed by treatment with a low dose of streptozotocin (STZ/HFD). This treatment regimen recreates both the insulin resistance and the hyperglycemia seen in human Type 2 diabetes. Male CD rats (Jackson Labs, Bar Harbor Me.) were maintained according to NIH guidelines, housed two per cage, and fed either standard lab chow (Tekland Laboratory Diets, James Grain, San Jose, Calif.) or the same chow supplemented with chocolate bars, cookies, and potato chips such that their final diet contained 30% fat by weight (high-fat diet; HFD). After two weeks of this diet, the animals were given an injection of freshly-prepared streptozotocin (35 mg/kg, i.p.) and continued on the HFD. Animals that achieved glucose levels of 190 to 380 mg/dl were used in this study. At the end of the 12-hour light/dark cycle, and just prior to the experiment, the animals were moved to new cages with no food available until 4 hours after treatment. The compound or vehicle (PBS) was given p.o. by gavage, and blood was sampled by approved IACUC protocol using tail cap method. Glucose was determined using the Glucometer Elite (Bayer, Elkhart, Ind.).
The reduction was maximal (20%) 4 hours after the administration of Compound 15.

For a further assay, the system named is STZ/HFD rats. The assay is described as follows: Multi-dosing in STZ/HFD rats. The assay is classed as in vivo, rat. Conditions: 30 mg/kg oral daily, 3 days (FIG. 14). The method, then:
Multi-Dosing in STZ/HFD Rats
STZ/HFD rats were prepared as in example 19. Compound 15 or an equivalent amount of the vehicle (PBS) was administered daily by the oral route at a dose of 30 mg/kg. Blood samples were taken by an IACUC-approved protocol (tail cap method) immediately before each dose and 4 and 6 (day one only) hours later. Blood glucose levels were measured using a Glucometer Elite (Bayer, Elkhart, Ind.). The blood glucose levels of the vehicle-treated group fell over the course of the experiment as the animals recovered from the low dose of STZ (FIG. 14).

insulin-like growth factor type 1 (IGF-1) receptor, sequence (P08069 741-1367 limits assumed): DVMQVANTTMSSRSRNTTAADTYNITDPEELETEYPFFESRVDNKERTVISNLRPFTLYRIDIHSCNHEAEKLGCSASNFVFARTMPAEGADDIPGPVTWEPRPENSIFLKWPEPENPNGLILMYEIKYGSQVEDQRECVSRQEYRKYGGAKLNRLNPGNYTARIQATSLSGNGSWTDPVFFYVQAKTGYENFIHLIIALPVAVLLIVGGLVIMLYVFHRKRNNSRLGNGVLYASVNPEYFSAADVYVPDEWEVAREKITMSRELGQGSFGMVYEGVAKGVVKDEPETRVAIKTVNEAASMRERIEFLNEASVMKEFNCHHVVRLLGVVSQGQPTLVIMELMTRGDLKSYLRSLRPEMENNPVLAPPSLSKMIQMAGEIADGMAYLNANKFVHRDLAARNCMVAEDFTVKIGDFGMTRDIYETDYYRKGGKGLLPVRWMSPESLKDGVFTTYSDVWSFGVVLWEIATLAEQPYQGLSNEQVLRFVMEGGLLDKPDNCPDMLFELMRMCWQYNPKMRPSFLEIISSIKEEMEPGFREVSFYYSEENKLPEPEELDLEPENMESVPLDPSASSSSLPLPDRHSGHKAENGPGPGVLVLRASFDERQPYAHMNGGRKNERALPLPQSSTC
insulin-like growth factor type 1 (IGF-1) receptor, sequence (P08069 31-736 partner limits assumed): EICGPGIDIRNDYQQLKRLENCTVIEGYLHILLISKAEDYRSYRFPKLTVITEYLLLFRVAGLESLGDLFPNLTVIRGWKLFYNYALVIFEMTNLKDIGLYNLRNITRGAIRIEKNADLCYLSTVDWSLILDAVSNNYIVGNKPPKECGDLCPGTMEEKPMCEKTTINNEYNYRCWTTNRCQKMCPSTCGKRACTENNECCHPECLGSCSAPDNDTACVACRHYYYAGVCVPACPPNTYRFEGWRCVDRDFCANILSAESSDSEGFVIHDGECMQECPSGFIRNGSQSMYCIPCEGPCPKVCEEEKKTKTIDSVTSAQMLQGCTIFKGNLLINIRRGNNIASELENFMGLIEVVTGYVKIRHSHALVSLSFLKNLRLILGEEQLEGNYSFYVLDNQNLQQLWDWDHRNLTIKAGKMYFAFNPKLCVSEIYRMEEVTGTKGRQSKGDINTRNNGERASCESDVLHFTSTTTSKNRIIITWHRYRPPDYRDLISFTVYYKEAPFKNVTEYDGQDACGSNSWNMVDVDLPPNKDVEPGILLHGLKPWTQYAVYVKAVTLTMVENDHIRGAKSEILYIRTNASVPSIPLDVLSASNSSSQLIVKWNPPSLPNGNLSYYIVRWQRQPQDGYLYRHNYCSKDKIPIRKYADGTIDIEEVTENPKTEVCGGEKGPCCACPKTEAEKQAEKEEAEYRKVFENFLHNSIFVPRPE

With `O=C(Nc1ccc2c(O)cc(S(=O)(=O)Nc3cccc(S(=O)(=O)O)c3)cc2c1)Nc1ccc2c(O)cc(S(=O)(=O)Nc3cccc(S(=O)(=O)O)c3)cc2c1` [Compound 15, 3-{[(4-hydroxy-7-{[N-(5-hydroxy-7-{[(3-sulfophenyl)amino]sulfonyl}(2-naphthyl))carbamoyl]amino}-2-naphthyl)sulfonyl]amino}benzenesulfonic acid], the “phosphorylation of the IGF-1 receptor” value in assay [1] was “not to increase the phosphorylation”. Also, the “blood glucose levels in db/db mice” value with db/db mouse was “acts in an insulin-independent manner to lower blood glucose levels”. Besides, in the assay on ob/ob mouse, the “decrease in blood glucose levels” value was 13%, the “decrease in plasma insulin levels” value came out at 42% and the “decrease in plasma triglyceride levels” value is 15%. Also, in the assay with STZ/HFD rat (p.o. by gavage (FIG. 11)), the “maximal reduction in blood glucose levels” value was 20% and the “time of maximal reduction in blood glucose after administration” value turned out to be 4 h. In the assay on STZ/HFD rat (p.o. by gavage, 6 hour experiment (FIG. 11)), the “onset and duration of reduction in blood glucose levels” value was “beginning one hour after administration and persisting for the entire 6 hours of the experiment”. In addition, in the assay on STZ/HFD rats, the “blood glucose levels versus vehicle-treated group” value is recorded as “lowered blood glucose levels below those of the vehicle-treated group by 6 hours after administration”.
